Laboratory results reported in patent publication US20240270821A1, “GIP/GLP1/GCG TRI-RECEPTOR AGONISTS AND USES THEREOF” (priority 2023, published 2024).
Where two headings read alike, the source gives them in different places. Starred links: 1 amine or outer side, 2 acyl side, 3 side chain; linkers in the order of their positions; H or OH if unused. Non-standard residues stand in square brackets, D forms with d. Groups on a side chain read outwards from the residue. No end group written: not given here. *: point of attachment. C18 diacid = O=C(O)CCCCCCCCCCCCCCCCC(=O)*; αMePhe(2-F) = C[C@](N)(Cc1ccccc1F)C(=O)O; γGlu = O=C(O)[C@H](CCC(=O)[*:2])N[*:1]; αMe4Pal = C[C@](N)(Cc1ccncc1)C(=O)O; αMeY = C[C@](N)(Cc1ccc(O)cc1)C(=O)O; 4Pal = N[C@@H](Cc1ccncc1)C(=O)O; αMeL = CC(C)C[C@](C)(N)C(=O)O; Orn = NCCC[C@H](N)C(=O)O; AEEA = NCCOCCOCC(=O)O; Aib = CC(C)(N)C(=O)O

T1: hGIPR (Homo sapiens, UniProt P48546)
T1 sequence (P48546 22-466): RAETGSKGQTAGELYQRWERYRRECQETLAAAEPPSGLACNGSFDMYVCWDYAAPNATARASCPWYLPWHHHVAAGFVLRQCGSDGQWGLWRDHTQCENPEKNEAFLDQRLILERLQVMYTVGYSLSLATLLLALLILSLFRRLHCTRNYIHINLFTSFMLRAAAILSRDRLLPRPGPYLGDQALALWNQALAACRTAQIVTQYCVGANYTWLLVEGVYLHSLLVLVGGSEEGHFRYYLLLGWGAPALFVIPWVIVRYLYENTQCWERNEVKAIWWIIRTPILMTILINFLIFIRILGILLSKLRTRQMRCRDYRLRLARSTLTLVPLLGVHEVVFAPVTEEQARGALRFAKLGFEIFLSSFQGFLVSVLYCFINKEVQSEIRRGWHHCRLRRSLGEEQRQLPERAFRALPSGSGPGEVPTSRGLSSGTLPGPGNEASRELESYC

T2: human GIP receptor (human) (UniProt P48546)
T2 sequence (looked up): T1 sequence (P48546 22-466)

B1: Example 28 (peptide)
chain: YXQGTFTSDXSKXLDKKAQXAFIEYLLAGGPSSGEPPPSGE
modifications: Aib, 4Pal, αMeL; acylated Lys; C-term amide; synthetic construct; SITE 2: note = 2-Aminoisobutyric Acid; SITE 10: note = 3-(4-Pyridyl)-L-alanine; SITE 13: note = alpha-methyl-leucine; SITE 17: note = Lysine is chemically modified through conjugation of the epsilon-amino group of the Lysine side chain with (2-[2-(2-Amino-ethoxy)-ethoxy]-acetyl)

Columns and labels:
[1] = system: Intestinal organoid from Göttingen minipig jejunum tissue, 2D monolayer; experiment: Cell based in vitro permeability (Papp) assay; type: in vitro ADME
Method: Intestinal organoid from Göttingen minipig jejunum tissue and its 2D monolayer are generated using the protocol previously described ([…]-Thiele, […].; Wells, J. M., Optimized procedures for generating an enhanced, near physiological 2D culture system from porcine intestinal organoids. […] After 7 days of culture, organoids are dissociated into single cells by TrypLE (GIbco), and the single cell suspension is added in 24-well transparent transwell inserts (0.3 cm^2, Falcon, BD). […] Samples from the basal compartment are collected at 20 min in the presence of C10. Peptide concentrations in the apical and basal compartments are measured by LC/MS, and the apparent permeability coefficient (Papp) is calculated as previously described (Twarog, C.; Liu, K.; O'Brien, P. J.; Dawson, […] head-to-head Caco-2 assay comparison of the mechanisms of action of the intestinal permeation enhancers: SNAC and sodium caprate (C10).

hGIPR [2] = target: T1, hGIPR; experiment: Functional cAMP activity in the presence of 1% HSA; type: cell-based; details: read-out: cAMP Rel EC50, hGIPR
hGLP-1R [3] = target: T3, hGLP-1R (Homo sapiens, UniProt P43220); experiment: Functional cAMP activity in the presence of 1% HSA; type: cell-based; details: read-out: cAMP Rel EC50, hGLP-1R
human GcgR = human GcgR (Homo sapiens, UniProt P47871); experiment: Functional cAMP activity in the presence of 1% HSA; type: cell-based; details: read-out: cAMP Rel EC50, hGcgR
hGIPR [4] = target: T1, hGIPR; experiment: Functional cAMP activation in the presence of 0.1% casein (no HSA); type: cell-based; details: read-out: Relative cAMP EC50, hGIPR;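 for Relative cAMP EC50, hGIPR: intracellular cAMP rise after 30 min at 37 °C read by HTRF against a standard curve, scaled between buffer alone (0%) and top control ligand concentration (100%), four-parameter fit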;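 for Relative cAMP EC50, hGLP-1R: intracellular cAMP rise after 30 min at 37 °C read by HTRF, normalized between buffer only (0%) and maximal control ligand (100%), four-parameter variable-slope fit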;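 for Relative cAMP EC50, hGcgR: intracellular cAMP rise after 30 min at 37 °C, read by HTRF against a cAMP standard curve, scaled from buffer only (0%) to maximal control ligand response (100%)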
hGLP-1R [5] = target: T3, hGLP-1R; experiment: as above; type: cell-based; details: read-out: Relative cAMP EC50, hGLP-1R
hGcgR = hGcgR (Homo sapiens, UniProt P47871); experiment: as above; type: cell-based; details: read-out: Relative cAMP EC50, hGcgR;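 note: intracellular cAMP rise after 30 min at 37 °C, read by HTRF against a cAMP standard curve, scaled from buffer only (0%) to maximal control ligand response (100%)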
hGLP-1R [6] = target: T3, hGLP-1R; experiment: cell-based or functional assay
[7] = target: T2, human GIP receptor (human); experiment: cell-based or functional assay
[8] = target: human GLP1-R (SNAP-GLP-1R expressed in HEK293 cells) (human) (UniProt P43220); experiment: cell-based or functional assay
[9] = target: human glucagon receptor (human) (UniProt P47871); experiment: cell-based or functional assay
[10] = in the presence of 0.1% casein (no HSA), geometric mean

T3 sequence (P43220 24-463): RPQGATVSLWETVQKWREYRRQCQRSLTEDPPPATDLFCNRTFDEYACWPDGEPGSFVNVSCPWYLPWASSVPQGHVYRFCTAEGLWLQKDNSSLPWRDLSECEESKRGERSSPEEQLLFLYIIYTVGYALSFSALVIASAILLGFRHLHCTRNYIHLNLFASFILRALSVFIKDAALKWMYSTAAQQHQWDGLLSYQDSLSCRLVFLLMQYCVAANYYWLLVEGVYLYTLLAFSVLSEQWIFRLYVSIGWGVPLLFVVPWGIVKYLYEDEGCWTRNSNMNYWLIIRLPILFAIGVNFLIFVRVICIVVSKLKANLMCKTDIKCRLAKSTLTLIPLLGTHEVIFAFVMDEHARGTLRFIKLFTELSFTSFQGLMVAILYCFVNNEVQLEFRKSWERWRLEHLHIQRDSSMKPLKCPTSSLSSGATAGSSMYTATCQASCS
human GcgR, sequence (P47871 26-477): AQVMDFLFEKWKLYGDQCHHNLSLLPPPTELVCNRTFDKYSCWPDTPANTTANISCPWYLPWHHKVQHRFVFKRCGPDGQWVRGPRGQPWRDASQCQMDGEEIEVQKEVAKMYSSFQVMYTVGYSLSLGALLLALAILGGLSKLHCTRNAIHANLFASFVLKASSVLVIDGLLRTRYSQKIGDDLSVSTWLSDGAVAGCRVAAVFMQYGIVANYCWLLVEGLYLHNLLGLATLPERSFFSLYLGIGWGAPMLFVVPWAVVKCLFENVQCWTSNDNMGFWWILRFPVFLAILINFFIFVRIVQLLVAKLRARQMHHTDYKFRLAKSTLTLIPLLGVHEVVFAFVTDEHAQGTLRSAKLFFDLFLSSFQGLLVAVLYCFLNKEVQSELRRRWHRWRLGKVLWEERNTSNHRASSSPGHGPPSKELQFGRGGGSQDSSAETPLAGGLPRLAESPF
hGcgR, sequence (P47871 26-477): as above
human GLP1-R (SNAP-GLP-1R expressed in HEK293 cells) (human), sequence (P43220 24-463): as the sequence (P43220 24-463) above
human glucagon receptor (human), sequence (P47871 26-477): as the sequence (P47871 26-477) above

Molecule | Relative Papp (Compared to internal standard) [1] | EC50 (hGIPR [2]) [nM] | EC50 (hGLP-1R [3]) [nM] | EC50 (human GcgR) [nM] | EC50 (hGIPR [4]; [10]) [nM] | EC50 (hGLP-1R [5]; [10]) [nM] | EC50 (hGcgR; [10]) [nM] | further results
CC[C@H](C)[C@H](NC(=O)[C@H](Cc1ccccc1)NC(=O)[C@H](C)NC(=O)C(C)(C)NC(=O)[C@H](CCC(N)=O)NC(=O)[C@H](C)NC(=O)[C@H](CCCCNC(=O)COCCOCCNC(=O)CC[C@H](NC(=O)CCCCCCCCCCCCCCCCC(=O)O)C(=O)O)NC(=O)[C@H](CCCCN)NC(=O)[C@H](CC(=O)O)NC(=O)[C@H](CC(C)C)NC(=O)[C@](C)(CC(C)C)NC(=O)[C@H](CCCN)NC(=O)[C@H](CO)NC(=O)[C@H](Cc1ccccc1)NC(=O)[C@H](CC(=O)O)NC(=O)[C@H](CO)NC(=O)[C@@H](NC(=O)[C@H](Cc1ccccc1)NC(=O)[C@@H](NC(=O)CNC(=O)[C@H](CCC(N)=O)NC(=O)C(C)(C)NC(=O)[C@@H](N)Cc1ccc(O)cc1)[C@@H](C)O)[C@@H](C)O)C(=O)N[C@@H](CCC(=O)O)C(=O)N[C@@H](Cc1c[nH]c2ccccc12)C(=O)N[C@@H](CC(C)C)C(=O)N[C@@H](CC(C)C)C(=O)N[C@@H](CCC(=O)O)C(=O)NCC(=O)NCC(=O)N1CCC[C@H]1C(=O)N[C@@H](CO)C(=O)N[C@@H](CO)C(=O)NCC(=O)N[C@@H](C)C(=O)N1CCC[C@H]1C(=O)N1C[C@H](O)C[C@H]1C(=O)N1CCC[C@H]1C(=O)N[C@@H](CO)C(=O)NCC(=O)N[C@@H](CCC(=O)O)C(N)=O [Example 137] | 0.04 | – | – | – | – | – | – | –
CC[C@H](C)[C@H](NC(=O)[C@H](Cc1ccccc1)NC(=O)[C@H](C)NC(=O)C(C)(C)NC(=O)[C@H](CCC(N)=O)NC(=O)[C@H](C)NC(=O)[C@H](CCCCNC(=O)COCCOCCNC(=O)CC[C@H](NC(=O)CCCCCCCCCCCCCCCCC(=O)O)C(=O)O)NC(=O)[C@H](CCCCN)NC(=O)[C@H](CC(=O)O)NC(=O)[C@H](CC(C)C)NC(=O)[C@](C)(CC(C)C)NC(=O)[C@H](CCCN)NC(=O)[C@H](CO)NC(=O)[C@H](Cc1ccccc1)NC(=O)[C@H](CC(=O)O)NC(=O)[C@H](CO)NC(=O)[C@@H](NC(=O)[C@H](Cc1ccccc1)NC(=O)[C@@H](NC(=O)CNC(=O)[C@H](CCC(N)=O)NC(=O)C(C)(C)NC(=O)[C@@H](N)Cc1ccc(O)cc1)[C@@H](C)O)[C@@H](C)O)C(=O)N[C@@H](CCC(=O)O)C(=O)N[C@@H](Cc1ccc(O)cc1)C(=O)N[C@@H](CC(C)C)C(=O)N[C@@H](CC(C)C)C(=O)N[C@@H](CCC(=O)O)C(=O)N[C@H](C)C(=O)NCC(=O)N1CCC[C@H]1C(=O)N[C@@H](CO)C(=O)N[C@@H](CO)C(=O)NCC(=O)N[C@@H](C)C(=O)N1CCC[C@H]1C(=O)N1CCC[C@H]1C(=O)N1CCC[C@H]1C(=O)N[C@@H](CO)C(=O)NCC(=O)N[C@H](C(=O)O)[C@@H](C)O [Example 213] | 0.26 | – | – | – | – | – | – | –
CC[C@H](C)[C@H](NC(=O)[C@H](Cc1ccccc1)NC(=O)[C@H](CCCN)NC(=O)C(C)(C)NC(=O)[C@H](CCC(N)=O)NC(=O)[C@H](C)NC(=O)[C@H](CCCCNC(=O)[C@@H](CCC(=O)O)NC(=O)CC[C@H](NC(=O)CCCCCCCCCCCCCCCCC(=O)O)C(=O)O)NC(=O)[C@H](CCCN)NC(=O)[C@H](CC(=O)O)NC(=O)[C@H](CC(C)C)NC(=O)[C@](C)(CC(C)C)NC(=O)[C@@H](NC(=O)[C@](C)(CO)NC(=O)[C@H](Cc1ccncc1)NC(=O)[C@H](CC(=O)O)NC(=O)[C@H](CO)NC(=O)[C@@H](NC(=O)[C@](C)(Cc1ccccc1F)NC(=O)[C@@H](NC(=O)CNC(=O)[C@H](CCC(N)=O)NC(=O)C(C)(C)NC(=O)[C@@H](N)Cc1ccc(O)cc1)[C@@H](C)O)[C@@H](C)O)[C@@H](C)CC)C(=O)N[C@H](CCC(=O)O)C(=O)N[C@@](C)(Cc1ccc(O)cc1)C(=O)N[C@@H](CC(C)C)C(=O)N[C@@H](CCC(N)=O)C(=O)N[C@@H](CCC(=O)O)C(=O)NCC(=O)NCC(=O)N1CCC[C@H]1C(=O)N[C@@H](CO)C(=O)N[C@@H](CO)C(=O)NCC(=O)N[C@@H](CCC(=O)O)C(=O)N1CCC[C@H]1C(=O)N1CCC[C@H]1C(=O)N1CCC[C@H]1C(=O)N[C@@H](CCC(=O)O)C(=O)NCC(=O)N[C@H](C(=O)N[C@@H](CCC(=O)O)C(=O)N[C@@H](CCC(=O)O)C(N)=O)[C@@H](C)O [Example 595] | 0.55 | 1.73 | 30.4 | 353 | – | – | – | EC50 (hGIPR [4]): 0.0338 nM; EC50 (hGLP-1R [5]): 0.53 nM; EC50 (hGcgR): 5.06 nM
H-Y[Aib]QGTFTSDFS[Orn][αMeL]LDKK([AEEA-AEEA-γGlu-C18 diacid])AQ[Aib]AFIEYLLE[Aib]GHSSGAPPPSGT-NH2 [Example 182] | 0.12 | 9.95 | 398 | 1480 | 0.0781 | 4.8 | 5.33 | –
H-Y[Aib]QGTFTSDFS[Orn][αMeL]LDKK([AEEA-γGlu-C18 diacid])AQ[Aib]AFIEYLLEGGPSSGAPPPEGS-NH2 [Example 130] | 0.06 | 60.5 | 865 | 1080 | 0.411 | 4.29 | 3.74 | –
H-Y[Aib]QGTFTSDFS[Orn][αMeL]LDKK([AEEA-γGlu-C18 diacid])AQ[Aib]AFIEYLLE[dA]GPSSGAPPPSGS [Example 212] | 0.22 | – | – | – | – | – | – | –
H-Y[Aib]QGTFTSDFS[Orn][αMeL]LDKK([γGlu-γGlu-C18 diacid])AQ[Aib]AFIEYLLEGGPSSGAPPPGGS-NH2 [Example 198] | 0.12 | 38.8 | 761 | 1300 | 0.182 | 4.36 | 6.85 | –
H-Y[Aib]QGTFTSD[4Pal]SQ[αMeL]LD[Orn]K([Glu-γGlu-C18 diacid])AQ[αMe4Pal]AFIEYLIAGGPSSGAPPPSGSEE-NH2 [Example 1033] | 0.14 | – | – | – | – | – | – | –
H-Y[Aib]QGTFTSD[4Pal]S[Orn][αMeL]LDKK([AEEA-γGlu-C18 diacid])AQ[αMe4Pal]AFIEYLIE[Aib]GPSSGAPPPSGS-NH2 [Example 808] | 0.29 | 27.3 | 406 | 286 | 0.187 | 3.58 | 1.65 | –
H-Y[Aib]QGT[αMePhe(2-F)]TSD[4Pal]SILLDKK([γGlu-γGlu-C18 diacid])AQ[Aib]AFIE[αMe4Pal]LEEGGPSSGAPPPSGTE-NH2 [Example 552] | 0.53 | 1.67 | 86.2 | 289 | – | – | – | EC50 (hGIPR [4]): 0.0177 nM; EC50 (hGLP-1R [5]): 0.804 nM; EC50 (hGcgR): 2.53 nM
H-Y[Aib]QGT[αMePhe(2-F)]TSD[4Pal]SILLDKK([γGlu-γGlu-C18 diacid])AQ[Aib]AFIE[αMeY]LEEGGPSSGAPPPSGSGE-NH2 [Example 666] | 0.85 | 1.39 | 32.3 | 224 | – | – | – | EC50 (hGIPR [4]): 0.0203 nM; EC50 (hGLP-1R [5]): 0.337 nM; EC50 (hGcgR): 2 nM
H-Y[Aib]QGT[αMePhe(2-F)]TSD[4Pal]SILLD[Orn]K([AEEA-γGlu-C18 diacid])AQ[αMe4Pal]EFI[dE][αMeY]LLEGGPSSGAPPPSGS-NH2 (C-terminus assumed) [Example 670] | 0.46 | – | – | – | – | – | – | –
B1 | – | – | – | – | – | – | – | Relative cAMP EC50 (hGLP-1R [6]): 3.68 nM; cAMP Rel EC50 (in the presence of 1% HSA) (hGLP-1R [6]): 686 nM; Relative cAMP EC50 [7]: 0.255 nM; cAMP Rel EC50 (in the presence of 1% HSA) [7]: 63.8 nM; GLP1R Internalization EC50 [8]: 81.8 nM; Internalization % TOP [8]: 76.2%; Relative cAMP EC50 [9]: 12.6 nM; cAMP Rel EC50 (in the presence of 1% HSA) [9]: 1550 nM
